Measured values from patent US6338946B1, “Method for assaying immunosuppressant” (Fujisawa Pharmaceutical Co., Ltd., priority 1994, dated 2002).

Legend:
[1] = target: T1, complex of FKBP-12, bovine calcineurin, bovine calmodulin and calcium ion (UniProt P48452+P62942+P63099); assay: Complex formation assay with solid-phase FKBP-12, detected by anti-calcineurin enzyme immunoassay (fluorometry); type: binding, human FKBP-12; bovine calcineurin and calmodulin; details: for Concentration dependence of fluorescence intensity (in words): Table 1 concentration series; for Complex forming activity (relative %): relative to FK506 = 100, calculated from Table 1 data
T1 construct: made in house; host or cells: E. coli HB101 (vector pFKBP333, tryptophan promoter)
Protocol: The plate was then washed 3 times with the same phosphate buffer solution as used in Preparation 1. FKBP-12 was thus bound to each well. An assay buffer (300 μl) having the composition shown below was added to each well and, after 15 minutes, it was removed, to block residual protein binding sites in each well. […] A solution (5 mg/ml) of a crude product, prepared by the conventional method, in 20 mM Tris-hydrochloride (pH 7.0) was 40-fold diluted with the above-mentioned assay buffer. Commercial bovine calmodulin was appropriately diluted with the above-mentioned assay buffer (to give a final concentration of 95 nM in the well). A methanol solution (1 mg/ml) of FK506 was appropriately diluted with the above-mentioned assay buffer. (3) Each well was washed (4 times) with the same buffer as the above-mentioned assay buffer except that it was free of bovine serum albumin and, then, an appropriate dilution (100 μl), in the assay buffer, of a rabbit polyclonal antibody recognizing the calcineurin Aα chain as obtained by the known method described, for example, in J. Neurochem., 58, 1643-1651 (1992) was added to each well, and the reaction was allowed to proceed at room temperature for 1 hour. (4) Each well was washed (4 times) with the same buffer as the above-mentioned assay buffer except that it was free of bovine serum albumin and, then, an appropriate dilution (100 μl), in the assay buffer, of alkaline phosphatase-labeled anti-rabbit IgG (Vector Laboratories) was added to each well. (5) Each well was washed (4 times) with the same buffer as the assay buffer except that it was free of bovine serum albumin and, then, 200 μl of a 4-methylumbelliferyl phosphate (hereinafter, 4-MU) substrate solution (1 mM), prepared as described below, was added to each well and, after the lapse of 20 minutes at room temperature, fluorometry (excitation wavelength 360 nm; emission wavelength 460 nm) was carried out using Cytofluor 2350 (trademark, Millipore Co. Ltd, USA). […] Ltd) was prepared with water and further diluted with a buffer solution (10 mM, pH 10.0) comprising diethanolamine (0.7 ml/l) and magnesium chloride hexahydrate (0.1 g/l) to give a 1 mM 4-MU substrate solution. Using the metabolites M-II and M-III shown below, which are already known as metabolites obtainable upon treatment of FK506 with rat liver microsome, as described, for example, in Drug Metabolism and Disposition, 21 (6), 971-977, quantitative analysis was carried out in the same manner as in Example 1.

[2] = system: mixed lymphocyte reaction; assay: in vitro mixed lymphocyte reaction (MLR) test; type: cell-based; details: for Immunosuppressive activity (in words): MLR; for Immunosuppressive activity (MLR) (relative %): relative to FK506 = 100
Protocol: (2) The immunosuppressive activity was measured by the well-known in vitro mixed lymphocyte reaction (MLR) test described, for example, in European Patent Application EP-0184162-A2, page 67.

FKBP-12 = FKBP-12 (Homo sapiens, UniProt P62942); assay: FKBP-12 binding activity measurement using 3H-dihydro-FK506; details: for FKBP-12 binding activity (relative %): relative to FK506 = 100
Protocol: (1) The FKBP-12 binding activity measurement was carried out in the same manner as described in Clinical Chemistry, 38/7, 1307-1310 (1992), using ^3H-dihydro-FK506, FKBP-12, dextran charcoaled, etc.

Chain of FKBP-12 (P62942 whole entry): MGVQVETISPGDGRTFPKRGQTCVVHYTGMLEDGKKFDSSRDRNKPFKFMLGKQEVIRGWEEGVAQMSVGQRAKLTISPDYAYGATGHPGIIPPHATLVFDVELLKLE

Question: For `C=CC[C@@H]1/C=C(\C)C[C@H](C)C[C@H](OC)[C@H]2O[C@@](O)(C(=O)C(=O)N3CCCC[C@H]3C(=O)O[C@H](/C(C)=C/[C@@H]3CC[C@@H](O)[C@H](OC)C3)[C@H](C)[C@@H](O)CC1=O)[C@H](C)C[C@@H]2OC` [FK506, 17-Allyl-1,14-dihydroxy-12-[2-(4-hydroxy-3-methoxycyclohexyl)-1-methylvinyl]-23,25-dimethoxy-13,19,21,27-tetramethyl-11,28-dioxa-4-azatricyclo[22.3.1.0^4,9]octacos-18-ene-2,3,10,16-tetraone], which “Detection by the complex assay method (in words)” value (from here on “Detection”) [1] is on record?
Answer: can be detected

Question: And the “Concentration dependence of fluorescence intensity (in words)” value (“Concentration dependence” below) [1]?
Answer: give fluorescence intensities depending on their concentrations

Question: What about the “Complex forming activity (relative %)” value [1] of the same compound?
Answer: 100 relative %

Question: And the “Immunosuppressive activity (in words)” value [2]?
Answer: have immunosuppressive activity

Question: What about the “Immunosuppressive activity (MLR) (relative %)” value [2] of the same compound?
Answer: 100 relative %

Question: And the “FKBP-12 binding activity (relative %)” value (FKBP-12)?
Answer: 100 relative %

Question: Which “Detection” value [1] does the source give for `C=CCC1/C=C(\C)CC(C)CC(O)C2OC(O)(C(=O)C(=O)N3CCCCC3C(=O)OC(/C(C)=C/C3CCC(O)C(C)C3)C(C)C(O)CC1=O)C(C)CC2OC` (stereo not shown) [M-III] here?
Answer: is not detected

Question: And the “Concentration dependence” value [1]?
Answer: does not give concentration-dependent values

Question: And the “Complex forming activity (relative %)” value [1]?
Answer: 0 relative %

Question: What about the “Immunosuppressive activity (in words)” value [2] of the same compound?
Answer: has no immunosuppressive activity

Question: And the “Immunosuppressive activity (MLR) (relative %)” value [2]?
Answer: 0 relative %

Question: What about the “FKBP-12 binding activity (in words)” value (FKBP-12) of the same compound?
Answer: has FKBP-12 binding activity

Question: And the “FKBP-12 binding activity (relative %)” value (FKBP-12)?
Answer: 116.0 relative %

Question: `C=CCC1/C=C(\C)CC(C)CC(OC)C2OC(O)(C(=O)C(=O)N3CCCCC3C(=O)OC(/C(C)=C/C3CCC(O)C(O)C3)C(C)C(O)CC1=O)C(C)CC2OC` (stereo not shown) [M-II] was tested. Which “Detection” value [1] did it give?
Answer: can be detected

Question: And the “Concentration dependence” value [1]?
Answer: give fluorescence intensities depending on their concentrations

Question: And the “Complex forming activity (relative %)” value [1]?
Answer: 79.7 relative %

Question: And the “Immunosuppressive activity (in words)” value [2]?
Answer: have immunosuppressive activity

Question: What about the “Immunosuppressive activity (MLR) (relative %)” value [2] of the same compound?
Answer: 100 relative %

Question: What about the “FKBP-12 binding activity (relative %)” value (FKBP-12) of the same compound?
Answer: 14.2 relative %
